According to patent publication US8741951B2, “Non-steroidal compounds for androgen receptor modulation” (CNR—Consiglio Nazionale delle Ricerche, priority 2009, dated 2014):
Entries after “also recorded” stand apart in the source; their conditions may differ.

How the values were obtained:
LNCaP cells = assay: SRB in vitro chemosensitivity assay, LNCaP; assay type: cell-based
Procedure: (§1) The cell lines were maintained as a monolayer at 37° C. and subcultured weekly. Culture medium was composed of RPMI 1640 supplemented with 10% fetal calf serum and 1% glutamine (Mascia Brunelli s.p.a., Milan, Italy). Cells were used in the exponential growth phase in all the experiments.
(§2) Compounds were dissolved in acetone or DMSO (AITES) ([…]) and stored at −20° C. The cell culture containing acetone at the highest concentration was used as the control.
(§3) Sulforhodamine B (SRB) assay was used according to the method by Skehan et al. (JNCI, 1990). Briefly, cells were collected by trypsinization, counted and plated at a density of 5,000 cells/well in 96-well flat-bottomed microtiter plates (100 μl of cell suspension/well). In the chemosensitivity assay, experiments were run in octuplicate, and each experiment was repeated three times. The optical density (OD) of cells was determined at a wavelength of 490 nm by a colorimetric plate reader.
(§4) If ODtreated is above ODzero, treatment has induced a cytostatic effect, whereas if ODtreated is below ODzero, cell killing has occurred. The ODzero depicts the cell number at the moment of drug addition, the ODcontrol reflects the cell number in untreated wells and the ODtreated reflects the cell number in treated wells on the day of the assay.
(§5) FIGS. 2-11 show the cytotoxic activity of the derivative compounds of the invention on the LNCaP and LNCaP-AR cell lines. The authors examined the antitumour activity of the compounds for which the synthesis is described above, in the hormone-sensitive prostate cancer cell line LNCaP and in its derivative cell line LNCaP-AR, expressing high level of AR and with hormone refractory prostate cancer (HRPC) features. The novel compounds were tested at the increasing concentrations of […], 0.2, 2.0, and 20.0 μM. The highest dose used was chosen on the basis of the clinically achievable peak plasma concentration reported in the literature for bicalutamide (Cockshott I D. Clin Pharmacokinet. 2004; 43(13): 855-78). After 144-hr exposure time the cytotoxic effect of the molecules was calculated according to the method of Monks et al. (Monks A, Scudiero D, Skehan P, et al. Feasibility of a high-flux anticancer drug screen using a diverse panel of cultured human tumor cell lines. J Natl Cancer Inst. 1991; 83: 757-66.)

LNCaP-AR cells = assay: SRB in vitro chemosensitivity assay, LNCaP-AR; assay type: cell-based
Procedure: as §1, §2, §3, §4, §5

PC-3 cell line = assay: SRB cytotoxicity, PC-3; assay type: cell-based, human; conditions: PC-3 (no AR), 144 h, up to 20 μM
Procedure: (§6) FIGS. 16-25: cytotoxic effect of compounds (R)-XXIII-2, (R)-XXIII-3, (R)-XXIII-4, (R)-XXIII-5, (R)-XXIII-6, (R)-XXIII-7, (R)-XXIII-8, (R)-XXIII-9, (R)-XXIII-10, (R)-XXIV-9 on PC-3 and DU-145 cell lines at different concentration (0.02, 0.2, 2, 20 μM) after 144 h exposure. On the x-axis is reported the concentration, while on the y-axis is reported the inhibition of the net growth (% net growth).
as §3, §4

DU145 cell line = assay: SRB cytotoxicity, DU145; assay type: cell-based, human; conditions: DU145 (no AR), 144 h, up to 20 μM
Procedure: as §6, §3, §4

[1] = test system: normal stem cells derived from human peripheral blood stem cells; assay: Colony-forming cell assay (GM-CFU); assay type: cell-based
Procedure: The colony-forming cell assay was used as previously described [Matta M R, Mangianti S, Rizzi S, Ratta M, Campanini E, Fortuna A, et al. Pharmacological purging of minimal residual disease from peripheral blood stem cell collections of acute myloblastic leukaemia patients: preclinical studies. Exp Hematol 1997; 25:1261-1269]. In brief, for each molecule, 5×10^4 cells were plated in duplicate in a complete culture medium (MethoCult H4434, StemCell Technologies, Vancouver, Canada) containing different concentrations (0.2, 2, and 20 μmol/l) of the compound. After 14 days of incubation in a humidified atmosphere of 5% CO2 at the temperature of 37° C., granulocyte macrophage colony-forming unit (GM-CFU) aggregates of more than 50 cells were counted. Control cells were incubated under the same conditions but in drug-free medium.

[2] = test system: human hepatoblastoma cell line HepG2; assay: Cytotoxic activity on HepG2 (hepato-toxicity); assay type: cell-based; conditions: HepG2, up to highest concentration tested
Procedure: as §3, §4
FIG. 27-36 show the cytotoxic activity of the drugs on the human hepatoblastoma cell line HepG2. The authors evaluated in vitro the potential hepato-toxicity of some of the novel compounds on HepG2 cell line, a human hepatoblastoma cell line that retains the specialized function of normal hepatocytes [Knowles B B, Howe C C, Aden D P. Human hepatocellular carcinoma cell lines secretes the major plasma proteins and hepatitis B surface antigen. Science 1980, 209:497-499; Aden D P, Vogel A, Plortkin S, Damjanov I, Knowles B B. Controlled synthesis of HBS Ag in a differentiated human liver carcinoma-derived cell line. Nature, 1979, 282:615-616].

[3] = test system: human CW22-RV1 prostate carcinoma xenograft; assay: In vivo antitumor activity, CW22-RV1 xenograft s.c. in nude mice
Procedure: CW-22Rv1, a human prostate carcinoma epithelial cell line were purchased from ATCC.
In vivo antitumor activity experiments with the compound (R)-XXIII-6 were carried out using female athymic Swiss nude mice 8 to 10 weeks of age (Charles River, Calco, Italy). Mice were maintained in laminar flow rooms, keeping temperature and humidity constant. Mice had free access to food and water. Experiments were approved by the Ethics Committee for Animal Experimentation of the Istituto Nazionale Tumori (Milan, Italy).
Human CW22-RV1 cells, a human prostate carcinoma epithelial cell line, derived from a xenograft that was serially propagated in mice after castration-induced regression and relapse of the parental, androgen-dependent CWR22 xenograft, were used for in vivo experiments. The prostate carcinoma cell line were inoculated by subcutaneous injection (s.c.) in the right flank of nude mice, at day 0. Treatment started at day 3 when tumor weights were around 60 mg.
The efficacy of the drug treatment was assessed as: (a) TWI % in treated versus control mice, calculated as TWI=100−(mean TW treated/mean TW control×100).
The toxicity of the drug treatment was assessed as: (a) BWL calculated as BWL=100−(mean BWdayx/mean BWday1×100), where day 1 is the first day of treatment and day x is any day after (mice were weighed twice/week throughout the experimental frame and in the table 3 the maximum BWL value was reported); and (b) lethal toxicity, i.e., any death in treated groups occurring before any control death (mice were inspected daily for mortality).

**Q.** How did the GI50 (LNCaP cells; Homo sapiens, LNCaP, 144 h) turn out when N#Cc1ccc(NC(=O)[C@](O)(Cc2cccs2)CS(=O)(=O)c2ccc(F)cc2)cc1C(F)(F)F [(R)-XXIII-6] was run?
**A.** The GI50 was 8.9 µM.

**Q.** What about the LC50 (LNCaP cells; LNCaP cells, 144 h exposure, up to 20 μM) of the same compound?
**A.** Its LC50 is “n.r”.

**Q.** And the “cytotoxic effect (cytostatic / cytocidal), in words” value (LNCaP cells; LNCaP, 144 h, up to 20 μM)?
**A.** Its value is “suppress completely the cell growth”.

**Q.** What about the GI50 (LNCaP-AR cells; Homo sapiens, LNCaP/AR, 144 h) of the same compound?
**A.** The GI50 was 9.8 µM.

**Q.** And the LC50 (LNCaP-AR cells; LNCaP-AR cells, 144 h exposure, up to 20 μM)?
**A.** The LC50 was “n.r”.

**Q.** And the “cytotoxic effect (cytostatic / cytocidal), in words” value (LNCaP-AR cells; LNCaP-AR, 144 h, up to 20 μM)?
**A.** The value was “suppress completely the cell growth”.

**Q.** And the “cytotoxic activity, in words” value (PC-3 cell line)?
**A.** The value was “negligible cytotoxic activity”.

**Q.** What about the “cytotoxic activity, in words” value (DU145 cell line) of the same compound?
**A.** The value was “negligible cytotoxic activity”.

**Q.** What about the “inhibition of clonogenic growth of normal stem cells (mielotoxicity), in words” value ([1]; 0.2, 2, 20 μmol/l, 14 days) of the same compound?
**A.** Its value is “does not seem to exert significant mielotoxicity; also recorded: weak cytostatic activity”.

**Q.** And the GI50 ([1]; hematopoietic precursors, highest concentration tested 20 μmol/l)?
**A.** The GI50 was “not being able to reach GI50 value”.

**Q.** What about the “hepato-toxicity, in words” value [2] of the same compound?
**A.** The value was “did not display toxicity”.

**Q.** And the “Tox/Tot (deaths in treated mice before any control death)” value ([3]; 100 mg/Kg p.o.)?
**A.** Its value is 0/6.

**Q.** And the “day of Max TWI % (day after tumor inoculum)” value ([3]; 100 mg/Kg p.o.)?
**A.** Its value is 23 days.

**Q.** What about the “Max TWI %” value ([3]; 100 mg/Kg p.o., (qdx5/wx2w) × 2 cycles) of the same compound?
**A.** Its value is 45%.

**Q.** And the “Max BWL (maximum body weight loss in percentage)” value ([3]; 100 mg/Kg p.o., during drug treatment)?
**A.** Its value is 2%.

**Q.** What about the “tolerability, in words” value ([3]; 100 mg/kg p.o.) of the same compound?
**A.** The value was “generally well tolerated, with no signs of acute or delayed toxicity”.

**Q.** What about the “antitumor activity / tumor weight, in words” value ([3]; 100 mg/kg p.o., versus untreated mice) of the same compound?
**A.** The value was “significant reduction in tumor weight; also recorded: effective in slowing tumor growth”.
